Results on 2 compounds are retold here after PMC4735769 (Cancer Medicine, 2015).

Data set [1] deals with pediatric preclinical cell models. The note with it: read-out: median IC50; cited from earlier work.
The subject of data set [2] is pediatric patients with relapsed solid tumors. Description: phase I dose escalation of oral sorafenib and topotecan: toxicity, DLT, MTD. Conditions: osteosarcoma patient with prior doxorubicin 450 mg/m^2, on digoxin and lisinopril; cycle 2.
Method: Intra‐patient dose escalation was not allowed on this study. […] Total daily dose for patients was rounded to the nearest 50 mg tablet size based on patient BSA (a dosing nomogram was used to minimize inter‐patient dosing variability). Patients ingested tablets with clear liquids (2–4 ounces for children <12 and 4 ounces for ≥12 years) and while dispersion in liquid was allowed, all patients swallowed tablets.
The capsules could not be chewed, crushed, or divided and were swallowed whole. […] Vials were dispensed in light protective bags and kept refrigerated. The reconstituted formulation was drawn up in oral syringes to the prescribed volume and administered to the patient immediately after reconstitution.
This dose‐escalation study used a standard 3 + 3 design, with up to six patients being enrolled on a DL. Enrollment to subsequent DLs was determined by the number of enrolled patients, the number with DLTs, and the number at risk for DLTs.
Toxicity was graded according to the Common Terminology Criteria for Adverse Events version 4.0 (http://ctep.cancer.gov). […]
Data set [3] is described as follows: sorafenib plasma pharmacokinetics (LC-MS/MS, noncompartmental). Format: in vivo, human.
Method: Plasma samples were analyzed by protein precipitation. Calibration curves, linear from 5 to 2500 ng/mL with an R ^2 of >0.99, were generated for each run, with patient sample concentrations back‐calculated from the corresponding regression line.
(§1) Plasma concentration‐time data for both drugs were analyzed by noncompartmental methods using Phoenix WinNonlin 6.3 (Pharsight Corp., Mountain View, CA).
Data set [4] concerns pediatric patients. The note with it: phase I single-agent pediatric trial; cited from earlier work.
The nature of data set [5]: topotecan plasma pharmacokinetics, total and lactone (HPLC fluorescence, noncompartmental). The note with it: for T min: total topotecan.
Method: The calibration curve was linear from 0.125 to 50 ng/mL, with the regression meeting acceptable criteria, with patient samples calculated as described above.
as §1
The mark [6] stands for this setting: Cycle 1, day 28, 150 mg/m^2 (n = 8), steady state, sorafenib alone.
Where [7] appears, read: Cycle 1, day 28, 200 mg/m^2 (n = 1), steady state, sorafenib alone.
Setting [8] is: Cycle 2, day 1, 150 mg/m^2 (n = 6), steady state, with topotecan.
[9] abbreviates: Cycle 2, day 1, 200 mg/m^2 (n = 1), steady state, with topotecan.

Structures are written as SMILES.

As a reminder, the IC50 is the concentration that gives 50% inhibition. Regarding `CNC(=O)c1cc(Oc2ccc(NC(=O)Nc3ccc(Cl)c(C(F)(F)F)c3)cc2)ccn1` [Sorafenib], in data set [1], the IC50 was 4.3 µM. Moreover, the “left ventricular ejection fraction on restart of sorafenib” value in data set [2] is “ejection fraction again fell to grade 3”. In data set [3] (setting [6]), the C avg was found to be 5400 ± 2600 ng/mL, the C max was found to be 6800 ± 3500 ng/mL, the C min was 2900 ± 2500 ng/mL and the T max came to 4.0 ± 3.3 h. This compound showed a T min in data set [3] (setting [6]) of 4.6 ± 3.4 h. In data set [3] (setting [7]), this compound came in with a C avg of 7600 ng/mL, a C min of 4900 ng/mL, a T max of 3 h and a T min of 8 h. In data set [3] (setting [8]), this compound displayed a C avg of 4500 ± 3800 ng/mL, a C min of 3100 ± 2800 ng/mL and a T min of 4.3 ± 2.7 h. For the same compound, in data set [3] (setting [9]), the C avg stood at 9800 ng/mL, the C min worked out at 6700 ng/mL and the T min is 5 h. Also, in data set [3] (cycle 1 day 28 vs cycle 2 day 1, all dose levels), the “dose-normalized AUC, exposure to sorafenib with vs without topotecan” value is reported as “comparable amounts of exposure”. The “dose-limiting toxicities (DLTs)” value in data set [4] is “rash and hypertension”.

On to `CC[C@@]1(O)C(=O)OCc2c1cc1n(c2=O)Cc2cc3c(CN(C)C)c(O)ccc3nc2-1` [Topotecan], for which the “drug–drug interaction, topotecan PK profiles in presence and absence of sorafenib” value in data set [5] (cycle 1 day 1 vs cycle 2 day 1) is on record as “no apparent drug–drug interaction”. Further, the T min in data set [5] (Cycle 1 Day 1 – 1.0 mg/m^2 (n = 3), without sorafenib) is 4.7 (±1.1) h; in data set [5] (Cycle 2 Day 1 – 1.0 mg/m^2 (n = 3), sorafenib at steady state), 9.2 (±3.6) h.
